ChEMBL document CHEMBL1909046, “DrugMatrix in vitro pharmacology data”

What was measured:
[1] = biological target: 5-hydroxytryptamine receptor 1B (Rattus norvegicus, UniProt P28564); type: cell membranes, Wistar, Cerebral cortex, Membrane; note: in other assays of this panel Not Active means under 50% inhibition at 10 µM
[2] = biological target: T1, Endothelin-1 receptor (Homo sapiens, UniProt P25101); type: cell membranes, Membrane; conditions: cho-k1; note: in other assays of this panel Not Active means under 50% inhibition at 10 µM
T1 sequence (P25101 whole entry): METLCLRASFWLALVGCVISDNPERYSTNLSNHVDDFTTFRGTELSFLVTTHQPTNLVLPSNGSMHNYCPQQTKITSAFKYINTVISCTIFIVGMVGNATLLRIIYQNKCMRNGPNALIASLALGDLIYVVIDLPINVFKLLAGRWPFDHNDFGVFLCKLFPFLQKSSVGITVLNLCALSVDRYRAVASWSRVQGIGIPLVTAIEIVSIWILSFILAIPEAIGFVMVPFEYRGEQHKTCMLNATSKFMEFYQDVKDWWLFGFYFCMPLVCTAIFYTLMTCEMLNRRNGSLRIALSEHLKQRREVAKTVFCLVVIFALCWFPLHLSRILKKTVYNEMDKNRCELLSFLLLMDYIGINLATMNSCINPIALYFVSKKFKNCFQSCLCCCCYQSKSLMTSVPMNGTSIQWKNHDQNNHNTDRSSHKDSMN

[3] = biological target: Cytochrome P450 2E1 (Homo sapiens, UniProt P05181); conditions: bti-tn-5b1-4; note: in other assays of this panel Not Active means under 50% inhibition at 10 µM
[4] = biological target: 5-hydroxytryptamine receptor 4 (Cavia porcellus, UniProt O70528); type: cell membranes, Dunkin-Hartley, Striatum, Membrane; note: in other assays of this panel Not Active means under 50% inhibition at 10 µM
[5] = biological target: T2, Alpha-1D adrenergic receptor (Homo sapiens, UniProt P25100); type: cell membranes, HEK293, Membrane; note: in other assays of this panel Not Active means under 50% inhibition at 10 µM
T2 sequence (P25100 whole entry): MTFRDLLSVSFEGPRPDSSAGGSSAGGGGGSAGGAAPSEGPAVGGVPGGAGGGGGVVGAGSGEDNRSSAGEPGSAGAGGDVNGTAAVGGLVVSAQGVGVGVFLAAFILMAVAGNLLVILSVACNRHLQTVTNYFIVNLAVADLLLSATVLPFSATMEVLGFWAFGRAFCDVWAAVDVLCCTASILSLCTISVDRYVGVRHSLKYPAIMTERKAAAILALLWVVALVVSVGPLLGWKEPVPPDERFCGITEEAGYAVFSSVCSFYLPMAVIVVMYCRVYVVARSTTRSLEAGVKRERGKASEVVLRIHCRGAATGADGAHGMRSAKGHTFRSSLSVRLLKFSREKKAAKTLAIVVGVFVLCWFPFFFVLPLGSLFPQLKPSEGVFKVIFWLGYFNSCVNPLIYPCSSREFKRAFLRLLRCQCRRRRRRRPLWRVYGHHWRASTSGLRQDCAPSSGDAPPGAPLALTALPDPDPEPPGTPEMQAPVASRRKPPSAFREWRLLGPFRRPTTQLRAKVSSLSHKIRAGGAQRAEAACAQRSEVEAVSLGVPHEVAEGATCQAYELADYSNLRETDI

[6] = biological target: Mitogen-activated protein kinase 3 (Homo sapiens, UniProt P27361); assay: DRUGMATRIX: Protein Serine/Threonine Kinase, ERK1 enzyme inhibition (substrate: Myelin Basic Protein); design: species or system Escherichia coli; conditions: Not Active = under 50% inhibition at 10 µM
[7] = biological target: Mitogen-activated protein kinase 1 (Homo sapiens, UniProt P28482); assay: DRUGMATRIX: Protein Serine/Threonine Kinase, ERK2 enzyme inhibition (substrate: Myelin Basic Protein); design: species or system Escherichia coli; conditions: Not Active = under 50% inhibition at 10 µM
[8] = biological target: T3, Cysteinyl leukotriene receptor 1 (Homo sapiens, UniProt Q9Y271); type: cell membranes, CHO-K1, Membrane; conditions: cho-k1; note: in other assays of this panel Not Active means under 50% inhibition at 10 µM
T3 sequence (Q9Y271 whole entry): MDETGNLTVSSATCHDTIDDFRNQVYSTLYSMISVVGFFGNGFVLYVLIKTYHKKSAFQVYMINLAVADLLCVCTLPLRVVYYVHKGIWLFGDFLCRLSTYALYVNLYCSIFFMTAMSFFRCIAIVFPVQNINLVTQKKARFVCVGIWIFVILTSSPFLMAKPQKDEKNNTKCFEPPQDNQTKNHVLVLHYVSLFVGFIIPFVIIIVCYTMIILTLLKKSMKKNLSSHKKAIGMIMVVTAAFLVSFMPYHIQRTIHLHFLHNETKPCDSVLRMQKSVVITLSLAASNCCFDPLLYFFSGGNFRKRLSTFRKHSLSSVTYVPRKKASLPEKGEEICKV

[9] = biological target: 5-hydroxytryptamine receptor 6 (Homo sapiens, UniProt P50406); type: cell membranes, HeLa, Membrane; note: in other assays of this panel Not Active means under 50% inhibition at 10 µM
[10] = biological target: T4, Adenosine receptor A1 (Homo sapiens, UniProt P30542); type: cell membranes, CHO, Membrane; conditions: cho
T4 sequence (P30542 whole entry): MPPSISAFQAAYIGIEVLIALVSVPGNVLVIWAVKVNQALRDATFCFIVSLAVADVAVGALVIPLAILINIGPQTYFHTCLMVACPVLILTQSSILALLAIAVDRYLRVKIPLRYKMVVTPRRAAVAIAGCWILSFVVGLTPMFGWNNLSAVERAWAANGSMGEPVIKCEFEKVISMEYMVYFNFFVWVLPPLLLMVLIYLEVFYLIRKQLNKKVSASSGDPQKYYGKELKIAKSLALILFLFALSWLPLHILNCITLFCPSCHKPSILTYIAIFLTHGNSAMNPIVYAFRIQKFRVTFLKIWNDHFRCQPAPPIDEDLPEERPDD

[11] = biological target: T5, Cytochrome P450 1A2 (Homo sapiens, UniProt P05177); conditions: bti-tn-5b1-4; note: in other assays of this panel Not Active means under 50% inhibition at 10 µM
T5 sequence (P05177 whole entry): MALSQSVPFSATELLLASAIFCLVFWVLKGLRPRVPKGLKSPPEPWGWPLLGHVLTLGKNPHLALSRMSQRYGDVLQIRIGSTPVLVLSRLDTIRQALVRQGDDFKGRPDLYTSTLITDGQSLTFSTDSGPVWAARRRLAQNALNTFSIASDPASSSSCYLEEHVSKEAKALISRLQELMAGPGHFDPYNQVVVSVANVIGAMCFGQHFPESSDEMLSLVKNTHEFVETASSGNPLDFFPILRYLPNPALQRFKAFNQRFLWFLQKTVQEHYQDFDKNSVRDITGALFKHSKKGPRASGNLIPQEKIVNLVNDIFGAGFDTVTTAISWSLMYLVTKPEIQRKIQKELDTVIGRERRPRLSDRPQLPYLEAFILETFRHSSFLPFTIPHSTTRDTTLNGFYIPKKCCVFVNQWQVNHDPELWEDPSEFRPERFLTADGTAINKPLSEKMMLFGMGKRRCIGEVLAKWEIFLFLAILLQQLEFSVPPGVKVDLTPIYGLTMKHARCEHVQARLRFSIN

[12] = biological target: Substance-P receptor (Homo sapiens, UniProt P25103); type: cell membranes, CHO, Membrane; conditions: cho; note: in other assays of this panel Not Active means under 50% inhibition at 10 µM
[13] = biological target: Melanocortin receptor 3 (Homo sapiens, UniProt P41968); type: cell membranes, Membrane; conditions: hek293; note: in other assays of this panel Not Active means under 50% inhibition at 10 µM
Sequence of Melanocortin receptor 3 (P41968 whole entry): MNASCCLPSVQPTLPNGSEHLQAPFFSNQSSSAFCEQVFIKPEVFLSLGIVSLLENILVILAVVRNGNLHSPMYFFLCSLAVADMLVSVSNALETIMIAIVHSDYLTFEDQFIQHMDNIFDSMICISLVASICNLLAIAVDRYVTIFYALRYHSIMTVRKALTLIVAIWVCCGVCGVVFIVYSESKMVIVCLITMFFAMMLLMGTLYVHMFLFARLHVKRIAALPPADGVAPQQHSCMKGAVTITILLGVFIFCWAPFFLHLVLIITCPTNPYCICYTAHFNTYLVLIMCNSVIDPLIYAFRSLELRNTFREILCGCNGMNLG

Sequence of 5-hydroxytryptamine receptor 1B (P28564 whole entry): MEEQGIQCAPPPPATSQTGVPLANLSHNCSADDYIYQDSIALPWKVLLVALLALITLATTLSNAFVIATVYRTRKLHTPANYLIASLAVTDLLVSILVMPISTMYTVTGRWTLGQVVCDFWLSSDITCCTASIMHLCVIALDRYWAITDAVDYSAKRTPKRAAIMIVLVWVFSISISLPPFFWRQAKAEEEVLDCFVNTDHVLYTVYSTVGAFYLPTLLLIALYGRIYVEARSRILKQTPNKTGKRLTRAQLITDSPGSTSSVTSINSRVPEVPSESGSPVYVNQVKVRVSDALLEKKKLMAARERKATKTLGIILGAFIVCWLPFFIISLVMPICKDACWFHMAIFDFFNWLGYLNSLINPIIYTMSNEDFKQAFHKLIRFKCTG
Sequence of 5-hydroxytryptamine receptor 4 (O70528 whole entry): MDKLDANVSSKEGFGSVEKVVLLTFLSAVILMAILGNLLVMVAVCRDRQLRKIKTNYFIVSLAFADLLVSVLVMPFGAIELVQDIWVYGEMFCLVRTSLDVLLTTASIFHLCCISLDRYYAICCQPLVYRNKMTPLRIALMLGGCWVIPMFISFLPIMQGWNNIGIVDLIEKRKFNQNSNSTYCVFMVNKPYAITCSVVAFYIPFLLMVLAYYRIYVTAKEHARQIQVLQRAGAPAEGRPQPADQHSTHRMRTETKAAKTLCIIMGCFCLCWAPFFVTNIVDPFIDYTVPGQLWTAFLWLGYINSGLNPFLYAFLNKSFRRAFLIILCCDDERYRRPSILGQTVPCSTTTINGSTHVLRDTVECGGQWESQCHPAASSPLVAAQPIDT
Sequence of Substance-P receptor (P25103 whole entry): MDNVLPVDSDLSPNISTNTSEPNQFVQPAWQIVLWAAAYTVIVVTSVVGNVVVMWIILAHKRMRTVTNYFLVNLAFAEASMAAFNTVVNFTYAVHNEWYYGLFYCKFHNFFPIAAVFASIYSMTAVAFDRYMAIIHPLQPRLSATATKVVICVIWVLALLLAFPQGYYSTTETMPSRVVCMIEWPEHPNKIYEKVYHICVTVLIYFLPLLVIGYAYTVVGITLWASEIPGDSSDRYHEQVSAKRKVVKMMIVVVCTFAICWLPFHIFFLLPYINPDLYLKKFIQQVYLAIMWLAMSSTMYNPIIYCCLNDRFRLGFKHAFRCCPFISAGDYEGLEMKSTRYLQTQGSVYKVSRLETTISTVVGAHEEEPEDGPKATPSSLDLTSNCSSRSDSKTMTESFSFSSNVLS
Sequence of 5-hydroxytryptamine receptor 6 (P50406 whole entry): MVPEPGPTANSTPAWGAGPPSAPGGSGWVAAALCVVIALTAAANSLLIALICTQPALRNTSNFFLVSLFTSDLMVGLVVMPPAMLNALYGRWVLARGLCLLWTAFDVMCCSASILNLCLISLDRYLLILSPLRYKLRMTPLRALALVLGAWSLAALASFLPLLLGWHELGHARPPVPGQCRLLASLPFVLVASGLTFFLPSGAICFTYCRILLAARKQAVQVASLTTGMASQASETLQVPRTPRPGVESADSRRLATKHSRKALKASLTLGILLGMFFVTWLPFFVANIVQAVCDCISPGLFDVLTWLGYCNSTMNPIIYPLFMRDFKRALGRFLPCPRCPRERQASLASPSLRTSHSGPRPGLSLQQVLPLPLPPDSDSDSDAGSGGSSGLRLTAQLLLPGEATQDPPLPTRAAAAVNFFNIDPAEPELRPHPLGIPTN
Sequence of Cytochrome P450 2E1 (P05181 whole entry): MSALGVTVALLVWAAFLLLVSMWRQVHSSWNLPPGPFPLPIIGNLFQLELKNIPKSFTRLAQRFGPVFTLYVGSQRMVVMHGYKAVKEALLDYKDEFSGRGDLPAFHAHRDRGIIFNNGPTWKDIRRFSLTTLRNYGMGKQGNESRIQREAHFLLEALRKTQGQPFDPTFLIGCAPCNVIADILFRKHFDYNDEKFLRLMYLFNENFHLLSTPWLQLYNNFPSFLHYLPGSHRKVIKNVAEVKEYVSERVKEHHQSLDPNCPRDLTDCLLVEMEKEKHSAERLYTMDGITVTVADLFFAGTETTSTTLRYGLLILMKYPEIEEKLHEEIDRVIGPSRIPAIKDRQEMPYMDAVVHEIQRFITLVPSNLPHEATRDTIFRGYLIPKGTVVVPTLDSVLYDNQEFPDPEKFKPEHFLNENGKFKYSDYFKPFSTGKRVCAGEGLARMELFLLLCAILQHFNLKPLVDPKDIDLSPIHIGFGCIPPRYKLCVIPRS
Sequence of Mitogen-activated protein kinase 1 (P28482 whole entry): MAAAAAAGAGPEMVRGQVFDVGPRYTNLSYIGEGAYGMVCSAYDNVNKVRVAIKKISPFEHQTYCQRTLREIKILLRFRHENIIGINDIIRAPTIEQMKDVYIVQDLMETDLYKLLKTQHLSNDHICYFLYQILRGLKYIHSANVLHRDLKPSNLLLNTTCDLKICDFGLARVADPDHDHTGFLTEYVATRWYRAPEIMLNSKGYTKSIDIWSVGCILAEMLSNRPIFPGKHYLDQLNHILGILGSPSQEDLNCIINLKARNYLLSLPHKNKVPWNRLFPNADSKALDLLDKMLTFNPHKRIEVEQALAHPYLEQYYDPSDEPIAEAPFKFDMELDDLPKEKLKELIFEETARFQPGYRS
Sequence of Mitogen-activated protein kinase 3 (P27361 whole entry): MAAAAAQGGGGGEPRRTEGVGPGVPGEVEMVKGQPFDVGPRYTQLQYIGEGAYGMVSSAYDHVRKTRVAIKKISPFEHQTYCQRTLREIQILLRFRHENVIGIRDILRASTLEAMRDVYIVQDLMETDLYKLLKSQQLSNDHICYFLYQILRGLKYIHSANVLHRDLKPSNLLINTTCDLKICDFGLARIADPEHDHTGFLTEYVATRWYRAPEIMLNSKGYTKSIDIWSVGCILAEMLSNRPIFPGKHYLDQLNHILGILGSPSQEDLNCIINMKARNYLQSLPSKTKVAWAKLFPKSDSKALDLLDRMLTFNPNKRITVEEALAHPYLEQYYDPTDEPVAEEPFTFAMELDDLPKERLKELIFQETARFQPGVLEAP

SMILES | IC50 [1] | IC50 [2] | IC50 [3] | Ki [3] | IC50 [4] | IC50 ([5]; hek293) | IC50 [6] | IC50 [7] | IC50 [8] | IC50 ([9]; hela) | IC50 [10] | IC50 [11] | Ki [11] | IC50 [12] | IC50 [13] | also measured
CCc1ccc(C(=O)C(C)CN2CCCCC2)cc1 (centres undefined) [EPERISONE] | Not Active | Not Active | Not Active | Not Active | Not Active | Not Active | Not Active | Not Active | Not Active | Not Active | Not Active | Not Active | Not Active | Not Active | Not Active | –
CC(=O)[C@@]1(O)CC[C@H]2[C@@H]3C[C@H](C)C4=CC(=O)C=C[C@]4(C)[C@@]3(F)[C@@H](O)C[C@@]21C [FLUOROMETHOLONE] | Not Active | Not Active | Not Active | Not Active | Not Active | Not Active | Not Active | Not Active | Not Active | Not Active | Not Active | Not Active | Not Active | Not Active | Not Active | –
CCC1(c2ccccc2)C(=O)NCNC1=O [PRIMIDONE] | Not Active | Not Active | Not Active | Not Active | Not Active | Not Active | Not Active | Not Active | Not Active | Not Active | Not Active | Not Active | Not Active | Not Active | Not Active | –
N#C[C@H](O[C@@H]1O[C@H](CO[C@@H]2O[C@H](CO)[C@@H](O)[C@H](O)[C@H]2O)[C@@H](O)[C@H](O)[C@H]1O)c1ccccc1 [AMYGDALIN] | Not Active | Not Active | Not Active | Not Active | Not Active | Not Active | Not Active | Not Active | Not Active | Not Active | Not Active | Not Active | Not Active | Not Active | Not Active | –
CC(C)(Oc1ccc(CCNC(=O)c2ccc(Cl)cc2)cc1)C(=O)O [BEZAFIBRATE] | Not Active | Not Active | Not Active | Not Active | Not Active | Not Active | Not Active | Not Active | Not Active | Not Active | Not Active | Not Active | Not Active | Not Active | Not Active | –
CC=CC(=O)N(CC)c1ccccc1C | Not Active | Not Active | Not Active | Not Active | Not Active | Not Active | Not Active | Not Active | Not Active | Not Active | Not Active | Not Active | Not Active | Not Active | Not Active | –
CC(C)n1c(/C=C/C(O)CC(O)CC(=O)O)c(-c2ccc(F)cc2)c2ccccc21 (centres undefined) [FLUVASTATIN] | Not Active | Not Active | Not Active | Not Active | Not Active | Not Active | Not Active | Not Active | Not Active | Not Active | Not Active | Not Active | Not Active | Not Active | Not Active | –
CN1C[C@H](C(=O)N[C@]2(C)O[C@@]3(O)[C@@H]4CCCN4C(=O)[C@H](Cc4ccccc4)N3C2=O)C=C2c3cccc4[nH]cc(c34)C[C@H]21 [ERGOTAMINE] | – | Not Active | Not Active | Not Active | – | – | Not Active | Not Active | Not Active | – | Not Active | Not Active | Not Active | Not Active | Not Active | IC50 ([1]; read-out: IC50): 0.201 nM; Ki ([1]; read-out: Ki): 0.091 nM; IC50 ([4]; read-out: IC50): 1580 nM; Ki ([4]; read-out: Ki): 264 nM; IC50 ([5]; read-out: IC50): 49 nM; Ki ([5]; read-out: Ki): 24 nM; IC50 ([9]; read-out: IC50): 2.04 nM; Ki ([9]; read-out: Ki): 0.948 nM
CC(=O)OCC(=O)[C@@]1(OC(C)=O)[C@@H](C)C[C@H]2[C@@H]3C[C@H](F)C4=CC(=O)C=C[C@]4(C)[C@@]3(F)[C@@H](O)C[C@@]21C [DIFLORASONE DIACETATE] | Not Active | Not Active | Not Active | Not Active | Not Active | Not Active | Not Active | Not Active | Not Active | Not Active | Not Active | Not Active | Not Active | Not Active | Not Active | –
